Assay [1] deals with purified erythroid cells isolated from the spleens of normal and thalassemic mice. The experiment in a line: Primary splenic erythroid cell cultures with CFSE staining (cell proliferation). The assay is classed as cell-based, mouse. The note with it: for CFSE FACS profile versus untreated cells: erythroid cells from wt mice, FIG. 2A legend, n=4 per genotype; for total cell number as % of the initial cell numbers: 48 h in culture with Epo, with colcemid, n=4; for effect on cell proliferation of erythroid cultures (CFSE): erythroid cultures from thalassemic mice, AG490 100 uM, FIG. 2A. How it is done:
Spleens from […] were harvested and mechanically dissociated into single cell suspensions. Murine mononuclear cells were then isolated by centrifugation using Lympholyte-M density gradients (Cedarlane Laboratories Ltd, Westbury, N.Y.) following the manufacturer's instructions. Cells were incubated on ice for 15 minutes with a cocktail containing 10 μg each of non-erythroid FITCconjugated antibodies (GR-1, MAC1, CD4, CD8, CD11b, and CD49) (BD PharMingen). After washing, the cells were incubated for 15 minutes at 4° C. with anti-FITC microbeads (Miltenyi Biotech, Auburn, Calif.). The cell suspension was placed on a magnetic column and the eluted erythroid cells were kept for RNA extraction, protein analysis, in vitro culture with carboxy-fluorescein diacetate succinimidyl ester (CFSE; MolecularProbes, Eugene, Oreg.) staining or flow cytometric analysis. CFSE was added to the cells to give a final concentration of 1.25 uM. After 10 minutes at 37° C., further dye uptake was prevented by addition of 5 volumes of cold medium and incubated in ice for 5 minutes. The cells were then washed three times and seeded at 1×10^7 cells/ml in IMDM with 30% FBS (Hyclone, South Logan, Utah 84321), 1% deionized BSA, 100 IU/ml of penicillin, 100 ug/mL of streptomycin (Mediatech, Manassas, Va.), […] beta-thioglycerol (mTG; Sigma-Aldrich), and […] rHuEpo (10 U/ml; Amgen Mfg. Ltd. Thousand Oaks, Calif.). […] In order to visualize cell division, the cultured erythroid cells were stained with CFSE. Once the dye is inside the cell, it binds to cytoskeletal proteins and is divided equally between daughter cells. Thus, it is possible to determine if cells are dividing by monitoring the reduction of CFSE fluorescence (FIG. 2A).

The subject of assay [2] is normal and thalassemic mice. The experiment in a line: In vivo administration of Jak2 inhibitor to normal and thalassemic mice. More on the design: species or system mouse. An excerpt:
Mouse models that mimic beta-thalassemia intermedia (th3/+) and major (th3/th3) were used. (Rivella, S. et al, A novel murine model of Cooley anemia and its rescue by lentiviral mediated human beta globin gene transfer. Blood (2003) 101: 2932-2939, hereby incorporated by reference.) In th3/+ mice both the betaminor and betamajor gens have been deleted from one chromosome. Mice completely lacking adult beta-globin (th3/th3) die late in gestation. To circumvent this problem, bone marrow transplantation is conducted wherein hematopoietic fetal liver cells (HFLCs) were harvested from th3/th3 embryos at embryonic day 14.5 (E14.5) and injected into lethally irradiated syngeneic wild-type (wt) adult recipients.
Compound A, a Jak2 inhibitor, was administered to cohorts of normal and thalassemic mice of different ages. […] These observations indicate that the main role of pJak2 is to propel the erythropoietic drive.

For `CN[C@H]1CCc2cc(OC)c(OC)c(OC)c2-c2ccc(OC)c(=O)cc21` [colcemid], the “CFSE FACS profile versus untreated cells” value in assay [1] is on record as “little difference from untreated cells”. Moreover, the “total cell number as % of the initial cell numbers” value worked out at 88±18% in assay [1] (th3/+ erythroid cells), 72±25% in assay [1] (th3/th3 erythroid cells) and 46±9% in assay [1] (wt erythroid cells).

As for `Cc1cnc(Nc2ccc(N3CCN(C)CC3)cc2)nc1Nc1cccc(S(=O)(=O)NC(C)(C)C)c1` [compound A], the spleen size entry in assay [2] (6- and 12-week old thalassemic mice, 10 and 18 days of treatment) is recorded as “dramatically reduced”. The Hb levels entry in assay [2] (thalassemic mice, 10 and 18 days of treatment) was “decreasing Hb levels”. Besides, in assay [2] (young normal animals), the “erythropoiesis and size of the spleen” value is “affected both erythropoiesis and the size of the spleen”. In assay [1], the “effect on cell proliferation of erythroid cultures (CFSE)” value is recorded as “blocking cell proliferation”.

`N#C/C(=C/c1ccc(O)c(O)c1)C(=O)NCc1ccccc1` [AG490]: in assay [1], the “CFSE FACS profile versus untreated cells” value is “little difference from untreated cells” and the “effect on cell proliferation of erythroid cultures (CFSE)” value is “blocking cell proliferation”.

The values above are taken from US20110269721A1, “METHODS OF TREATING THALASSEMIA” (TargeGen, Inc., priority 2008, published 2011).
